From PMC8000447, “Assessment of Finite and Infinite Dose In Vitro Experiments in Transdermal Drug Delivery” (Pharmaceutics, 2021)
“And” between values parts separate entries of the source, which are not always exact repeats. Identical values can stand only once.

Key:
[1] = Kinetic permeation assay with infinite dosage using vertical Franz diffusion cells; type: in vitro ADME, pig; details: infinite dose 300 µL in propylene glycol (DS 3%, IBU 1%, LIDO 2%, CAF 1% w/v); for Papp / AUC / Cmax: female, white/landrace, pig; for Papp / AUC / Cmax / J (flux) / AUC (%): mean ± SD; for Papp / J (flux): n = 3; for Papp: read-out: Kp (permeability coefficient) (converted); for AUC / Cmax: receptor fluid; for AUC: read-out: AUC (area under the curve); for Cmax: read-out: Cmax (maximum concentration); for Kin. of release (best-fitting kinetic model): up to 30 h; for AUC (%): percentage release
Protocol: (§1) A porcine skin membrane was employed for both the permeation and penetration assays. […] The skin was provided by the Department of Cardiology of the Hospital Clinic (Barcelona, Spain). Dorsal unboiled skin (female white/landrace pigs) was prepared: the bristles were removed (A5 Clipper 78005-500, Oster professional, McMinnville, OR, USA) and dermatomed (Dermatome GA630, Aesculap, Tuttlingen, Germany) at 500 ± 50 μm thick. Thickness was verified with a digital micrometer 40EX (Mahr, Göttingen, Germany). Skin biopsies were cut into discs with 2.5 cm diameter. The skin discs were stored until the experiment (at −20 °C).
The kinetic diffusion assay was conducted using a Vision Microette (Vision G2 V14.1) with an Autosampler and an Autofill Collector (Hanson Research, Chatworths, CA, USA) automated vertical diffusion cell (7 mL acceptor chamber, and surface area of application of 1.77 cm^2).
The receptor fluid (RF) used was aqueous buffer solution of PBS in the case of DS, IBU, and CAF, and NaH2PO4 (0.05 M, pH = 7) in the case of LIDO. Receptor fluid was continuously stirred with magnetic beads at 700 rpm to keep the contents of the receptor chamber homogenous. The system was thermostatted at 43 ± 1 °C to provide a skin surface temperature of 32 ± 1 °C.
Once TEWL was measured, 300 μL (infinite dose) of the four active solutions was applied in triplicate to each Franz cell (Hanson Research, Chatworths, CA, USA) and donor compartment was sealed to donor chamber to avoid evaporation. Samples (700 µL) were collected at specific times (15 min, 30 min, 1 h, 2 h, 4 h, 6 h, 10 h, 20 h, and 30 h), and automatically passed into the corresponding vial. The same volume of receptor fluid was automatically replaced with fresh solution at each sampling. The content of receptor samples was diluted in 2 mL graduated flasks and filtered with a 0.45 µm nylon filter (Cameo, Sigma-Aldrich, St Louis, MO, USA) previous analyzed with a high-performance liquid chromatography-diode array detector (HPLC-DAD) (Section […]). The kinetics of penetration were determined, simulating the drug elimination in the body.
The cumulative amount of the active pharmaceutical ingredient (API) per surface area (Qn, µg/cm^2) was obtained for each replicate cell to calculate the release of the four APIs. The equation used to determine the cumulative amount of API in the receptor fluid was the following Equation (1):(1) Qn= Cn×Vc+ ∑i=1n−1Ci×Vs/A where Qn is the cumulative amount of API released at time n (μg/cm^2); Cn is the concentration of active ingredient in the sample (μg/mL); Vc is the volume of the vertical diffusion cell; ∑i=1n−1 Ci is the sum of the concentrations of API (µg/mL) determined at sampling intervals 1 through n − 1; Vs is the sample volume and A is the surface area of the sample.
The percentage of cumulative amount of API permeated over time was calculated by the following Equation (2):(2) % Release API= Qn/Total amount of API applied×100
Experimental data of cumulative amount (Qn and % Release API) were plotted versus time or its square root ( t ) to obtain the API absorption and penetration kinetics. Different mathematical model (Zero-order, First-order and Higuchi) were evaluated with the non-linear regression software STATGRAPHICS plus 5 (Statgraphics Technologies, Inc., The Plains, VA, USA). The best-fitting model was selected according to the highest correlation coefficient value (r^2) and it was possible to calculate other parameters, such as flux (J), the permeability coefficient (Kp), lag time (Tl), the maximum concentration (Cmax), the maximum time (tmax), and the area under the curve (AUC).

[2] = Penetration assay with finite dosage using vertical Franz diffusion cells; type: in vitro ADME, pig; details: 24 h; for % API detected in dermis (D) / % API detected in epidermis (E) / % API detected in receptor fluid (RF) / % API detected in stratum corneum (SC): finite dose 20 µL in propylene glycol, normalized amount, mean ± SD, n = 3; for % API total permeation (Perm): sum of epidermis, dermis and receptor fluid, finite dose 20 µL
Protocol: as §1
OECD guidelines and the published opinions of the Scientific Committee on Cosmetic Products and Non-Food Products (SCCS) were adhered in the penetration protocol. The excised pig skin was placed in a static Franz diffusion cell (Lara Spiral, Couternon, France) (1.86 cm^2 and 3 mL) with the dermis side facing the acceptor chamber. The receptor chamber was filled with receptor fluid. The receptor fluid was the same used in the kinetic assay (Section 2.4). Air bubbles entrapped below the skin were carefully removed and the assembled cells were deposited in a temperature-regulated water bath (Telesystem HP 15, H+P Labortechnik GmgH, Oberschleissheim, Germany) on top of a water-resistant magnetic stirring plate (Variomag 15 and Telemodul, H+P Labortechnik GmgH, Oberschleissheim, Germany). The homogeneity of receptor fluid was maintained by continuously stirring at 700 rpm. The system was thermostatted at 43 ± 1 °C to provide a skin surface temperature of 32 ± 1 °C.
The integrity and permeability of membranes were evaluated with the trans-epidermal water loss (TEWL) value as detailed in Section 2.3.
The finite assay protocol was conducted as described in previous studies. Briefly, 20 µL of each API solution was applied to the skin surface in the donor chamber (n = 3). According to the OECD methodology used, penetration studies were performed for 24 h. After the exposure time, the receptor fluid of all the membranes was collected to transfer to a 5 mL volumetric flask. The remaining API solution was removed from skin surface with specific washing procedure (W). Stratum corneum layers were obtained by tape stripping protocol with adhesive tape (D-Squame, Cuderm Corporation, Dallas, TX, USA) applied under controlled pressure (80 g/cm^2). Viable epidermis (E) and the dermis (D) were separated after heating the skin at 80 °C for several seconds. All samples were extracted with adequate solvent (Table 1) and filtered with a 0.45 µm Nylon filter (Cameo, Sigma-Aldrich, St. Louis, MO, USA) before HPLC quantification (Section 2.6).
The amount permeated in the skin was considered the sum of that in the epidermis, dermis, and receptor fluid. […]

| Papp [1] [×10⁻⁶ cm/s] | AUC [1] [µg·h/mL] | Cmax [1] [ng/mL] | J (flux) [1] [µg/cm^2/h] | Kin. of release (best-fitting kinetic model) [1] | AUC (%) [1] [%] | % API detected in dermis (D) [2] [%] | % API detected in epidermis (E) [2] [%] | % API detected in receptor fluid (RF) [2] | % API detected in stratum corneum (SC) [2] | % API total permeation (Perm) [2] [%] | SMILES |
| --- | --- | --- | --- | --- | --- | --- | --- | --- | --- | --- | --- |
| 0.0694 | 163 ± 28.3 | 66700 ± 16100 | 2.60 ± 0.69 | Ord 0 | 38.97 ± 4.56 | 2.79 ± 0.37 | 2.92 ± 0.61 | 53% and 52.68 ± 5.01% | 11% and 11.06 ± 1.15% | 58.39 ± 6.32 | CC(C)Cc1ccc(C(C)C(=O)O)cc1 (stereo not drawn) [Ibuprofen, ibuprofen] |
| 0.0442 | 168 ± 38.5 | 38100 ± 10000 | 3.94 ± 0.77 | Ord 0 | 15.43 ± 4.41 | 1.41 ± 0.49 | 5.54 ± 2.41 | 8.53 ± 3.99% | 8.08 ± 2.62% | 15.49 ± 6.89 | O=C(O)Cc1ccccc1Nc1c(Cl)cccc1Cl [Diclofenac sodium] |

| SMILES | Papp [1] [×10⁻⁶ cm/s] | AUC [1] [µg·h/mL] | Cmax [1] [ng/mL] | J (flux) [1] [µg/cm^2/h] | Kin. of release (best-fitting kinetic model) [1] | AUC (%) [1] [%] | % API detected in dermis (D) [2] [%] | % API detected in epidermis (E) [2] [%] | % API detected in receptor fluid (RF) [2] | % API detected in stratum corneum (SC) [2] | % API total permeation (Perm) [2] [%] |
| --- | --- | --- | --- | --- | --- | --- | --- | --- | --- | --- | --- |
| Cn1c(=O)c2c(ncn2C)n(C)c1=O [Caffeine, caffeine] | 0.0242 | 72.8 ± 32.6 | 13900 ± 1590 | 0.86 ± 0.07 | Ord 0 | 4.55 ± 3.31 | 0.55 ± 0.09 | 0.55 ± 0.23 | 3.62 ± 1.75% | 3.11 ± 2.33% | 4.72 ± 1.87 |
